TGI and GI50 data for 10 compounds are collected here from PubChem BioAssay (NCI).

Test systems include OVCAR-8 ovarian; HCT-15 colon; KM12 colon; 786-0 renal; OVCAR-3 ovarian; M14 melanoma; OVCAR-4 ovarian; SK-MEL-2 melanoma; ACHN renal; MALME-3M melanoma; CCRF-CEM leukemia; NCI-H226 lung; HOP-92 NSCLC; HL-60(TB) leukemia; MDA-MB-435; DU-145 prostate.
Common to all, as to test: inhibition of tumour cell growth, NCI panel, 48 h

The structures appear in SMILES notation.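 Test compounds were applied to cells in 96-well plates for 48 hours at 5 doses. Here, GI50 denotes the concentration required for 50% inhibition of growth. TGI denotes the concentration required for complete inhibition of growth.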 Some results are limits rather than exact numbers.

Consider `COc1ccc(C[C@@H]2Cc3cc(OC)c(OC)cc3CN2C)cc1`, for which the TGI in the assay on OVCAR-8 ovarian, in the assay on HCT-15 colon, with KM12 colon, with 786-0 renal, with OVCAR-3 ovarian and with M14 melanoma was over 100 µM in each case. Besides, the TGI with OVCAR-4 ovarian, in the assay with SK-MEL-2 melanoma, in the assay with ACHN renal, in the assay with MALME-3M melanoma and in the assay on CCRF-CEM leukemia was over 100 µM in each case.

With `O=S1(=O)OCCOS(=O)(=O)C1I`, the TGI in the assay on OVCAR-8 ovarian, in the assay on KM12 colon, in the assay with 786-0 renal, in the assay with OVCAR-3 ovarian, with M14 melanoma and in the assay on OVCAR-4 ovarian was over 100 µM throughout. Also, the TGI with SK-MEL-2 melanoma, with MALME-3M melanoma, in the assay on NCI-H226 lung, in the assay with HOP-92 NSCLC, in the assay on HL-60(TB) leukemia and in the assay with CCRF-CEM leukemia was over 100 µM each time.

For the compound `O=C1CCCCC1CN1CCCC1` (stereo unspecified), the TGI in the assay on OVCAR-8 ovarian, in the assay on HCT-15 colon, with KM12 colon, with 786-0 renal, with OVCAR-3 ovarian and with M14 melanoma was over 100 µM each time. Further, the TGI in the assay with OVCAR-4 ovarian, with SK-MEL-2 melanoma, with ACHN renal, in the assay with NCI-H226 lung and with CCRF-CEM leukemia was over 100 µM in each case.

Turning to `COc1cccc(-c2cc(=O)c3cc(OC)c(OC)cc3[nH]2)c1`, the TGI in the assay on OVCAR-8 ovarian, in the assay on HCT-15 colon, in the assay on KM12 colon, in the assay on 786-0 renal, in the assay on OVCAR-3 ovarian and in the assay on M14 melanoma was over 100 µM each time. The TGI with ACHN renal is over 100 µM; in the assay on MALME-3M melanoma, over 100 µM; in the assay on NCI-H226 lung, 79.8 µM; with HL-60(TB) leukemia, over 100 µM; in the assay on CCRF-CEM leukemia, over 100 µM. In addition, the GI50 in the assay on OVCAR-3 ovarian is 33.5 µM; with NCI-H226 lung, 21.5 µM.

Consider `OC12c3ccccc3C1(N1CCOCC1)CCCCC21OCCCO1` (stereo unspecified), for which the TGI in the assay with OVCAR-8 ovarian, with HCT-15 colon, in the assay with KM12 colon, in the assay on 786-0 renal, in the assay with OVCAR-3 ovarian and with M14 melanoma was over 100 µM throughout. Further, the TGI in the assay with OVCAR-4 ovarian, in the assay with SK-MEL-2 melanoma, in the assay on ACHN renal, in the assay with MALME-3M melanoma, in the assay with NCI-H226 lung and in the assay on HL-60(TB) leukemia was over 100 µM each time. In the assay on CCRF-CEM leukemia, this compound yielded a TGI of over 100 µM.

In the case of `C/C(=N\NS(=O)(=O)c1ccc(C)cc1)C(CN1CCOCC1)C(c1ccccc1)c1c(O)c2ccccc2oc1=O` (stereo unspecified), the TGI in the assay with OVCAR-8 ovarian, in the assay with HCT-15 colon, in the assay on KM12 colon, in the assay on 786-0 renal, in the assay with OVCAR-3 ovarian and with M14 melanoma was over 100 µM in each case. Further, the TGI with OVCAR-4 ovarian, in the assay on SK-MEL-2 melanoma, with ACHN renal, in the assay on MALME-3M melanoma, in the assay with NCI-H226 lung and in the assay with HOP-92 NSCLC was over 100 µM throughout. Besides, the TGI in the assay with HL-60(TB) leukemia was 76.1 µM; in the assay with CCRF-CEM leukemia, over 100 µM.

Take `COC(=O)c1ccc(OCc2ccc3nc(OC)c(OC)nc3c2)cc1`: the TGI with OVCAR-8 ovarian, in the assay on HCT-15 colon, in the assay on KM12 colon, in the assay with 786-0 renal, with OVCAR-3 ovarian and with M14 melanoma was over 100 µM in each case. The TGI in the assay on OVCAR-4 ovarian, in the assay with SK-MEL-2 melanoma, in the assay with ACHN renal, in the assay on MALME-3M melanoma, in the assay on NCI-H226 lung and with HL-60(TB) leukemia was over 100 µM each time. In the assay with CCRF-CEM leukemia, the TGI is over 100 µM.

Take `COC(=O)[C@@H]1CN(C(=O)c2ccccc2)C(=O)N1`: the TGI in the assay with OVCAR-8 ovarian, in the assay on MDA-MB-435, with KM12 colon, with 786-0 renal, in the assay on OVCAR-3 ovarian and with M14 melanoma was over 100 µM each time. In addition, the TGI in the assay with DU-145 prostate, with OVCAR-4 ovarian, with ACHN renal, in the assay on MALME-3M melanoma, in the assay on NCI-H226 lung and in the assay on HOP-92 NSCLC was over 100 µM throughout. Further, the TGI in the assay on HL-60(TB) leukemia and in the assay on CCRF-CEM leukemia was over 100 µM each time.

In the case of `CCN1CCC(O)(c2ccc(C)cc2)C(C(=O)c2ccc(C)cc2)C1` (stereo unspecified), the TGI in the assay on OVCAR-8 ovarian is 49.9 µM; with HCT-15 colon, 36.5 µM; with KM12 colon it was over 91.9 µM; with 786-0 renal, 26.6 µM; with OVCAR-3 ovarian, 40.1 µM; in the assay on M14 melanoma, over 57.8 µM. Also, the TGI in the assay on OVCAR-4 ovarian was 50.1 µM; in the assay on SK-MEL-2 melanoma, over 100 µM; in the assay on ACHN renal it was 32.1 µM; in the assay on MALME-3M melanoma it was 35.1 µM; with NCI-H226 lung it was over 100 µM; in the assay on HOP-92 NSCLC it was 40.1 µM. The TGI in the assay on HL-60(TB) leukemia amounted to 47.7 µM; with CCRF-CEM leukemia, 56 µM.

On to `COc1cc(OC)cc(Oc2nc3ccccc3nc2C(=O)O)c1`, for which the TGI with OVCAR-8 ovarian, in the assay on HCT-15 colon, in the assay on MDA-MB-435, with KM12 colon, in the assay on 786-0 renal and in the assay with OVCAR-3 ovarian was over 100 µM each time. Besides, the TGI in the assay with M14 melanoma, in the assay with DU-145 prostate, with OVCAR-4 ovarian, in the assay on SK-MEL-2 melanoma, in the assay on ACHN renal and in the assay with MALME-3M melanoma was over 100 µM in each case. In addition, the TGI in the assay on NCI-H226 lung, with HOP-92 NSCLC, with HL-60(TB) leukemia and in the assay on CCRF-CEM leukemia was over 100 µM each time.
